# “And” between values parts separate entries of the source, which are not always exact repeats. Equal values may be shown once. Read-outs that look alike come from different tables or passages of the source.
# Columns and labels:
# His-tagged BCL-2 = target: T1, His-tagged BCL-2 (Homo sapiens, UniProt P10415); experiment: AlphaScreen competitive binary binding, BCL-2 (biotin-BIM peptide); conditions: for Alpha signal normalised to Maximum/Minimum (inhibition): in % (unit assumed)
# T1 construct: purchased Sigma-Aldrich SRP0186
# T1 sequence (P10415 whole entry): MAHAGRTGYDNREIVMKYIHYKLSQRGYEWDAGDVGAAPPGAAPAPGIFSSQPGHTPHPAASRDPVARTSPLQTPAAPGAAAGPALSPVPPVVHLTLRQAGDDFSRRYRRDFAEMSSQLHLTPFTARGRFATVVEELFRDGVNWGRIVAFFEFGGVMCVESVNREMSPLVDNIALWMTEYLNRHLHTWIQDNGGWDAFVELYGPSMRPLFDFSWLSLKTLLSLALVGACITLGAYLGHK
# Method: (§1) The reagents were diluted in a buffer containing 250 mM HEPES pH 7.5, 1 M NaCl, 1% BSA, and 0.05% Tween-80. His-tagged BCL-xL (0.5 nM, Cat. No. SRP0187, Sigma-Aldrich) or BCL-2 (1 nM, Cat. No. SRP0186, Sigma-Aldrich) were incubated with serial diluted 753a or 753b and 2 nM biotin-tagged BAD (biotin-[…] amino-terminal, AnaSpec, for BCL-xL) or 10 nM BIM peptides (biotin-[…] N-terminal, AnaSpec, for BCL-2) to a final volume of 40 µl in a 96-well PCR plate. […] After incubation for 2 h, 5 µl 6× His-acceptor beads (Cat. No. AL128M, PerkinElmer) were added to each well at 20 µg/ml final concentration and incubated for 1 h. Then 5 µl streptavidin-donor beads were added (Cat. No. 6760002, PerkinElmer) to each well at 20 µg/ml final concentration and incubated for 45 min. At the end of the incubation period, 17 µl of each sample was transferred in adjacent wells of 384-well proxy plate (Cat. No. 6008280, PerkinElmer). The plate was scanned using the Alpha program on Biotek’s Synergy Neo2 multimode plate reader. The inhibition constant (Ki) was calculated using the non-linear regression, one site, competitive binding, Fit Ki function on GraphPad Prism 9 software, based on experimentally determined dissociation constant (Kd) for each protein–peptide pair.
# Hela cells = experiment: Viability (MTS) of Hela cells; assay type: cell-based, human; conditions: in % (unit assumed)
# Method: Suspension cells were treated 30 min after seeding, whereas adherent cells were allowed to adhere overnight and were then treated. Compound treatments were prepared in complete cell culture medium and 100 µl of 2× treatment-containing medium were added to each well. Complete cell culture medium without treatment was added in control wells, and wells containing medium without cells served as background. The outer wells of the 96-well plate were not used for treatment and were filled with 250 µl of PBS to reduce evaporation of medium from inner wells. Each compound and/or combination was tested at nine different concentrations with three replicates. The cell viability was measured after 72 h by tetrazolium-based MTS assay. MTS reagent (2 mg ml^–1 stock; cat. no. G1111, Promega) was freshly supplemented with phenazine methosulfate (PMS, 0.92 mg ml^–1 stock, cat. no. P9625, Sigma-Aldrich) in 20:1 ratio, and 20 µl of this mixture was added to each control and treatment well. The cells were incubated for 4 h at 37 °C and 5% CO2, and then the absorbance was recorded at 490 nm using Biotek’s Synergy Neo2 multimode plate reader (Biotek). The average absorbance value of background wells was subtracted from absorbance value of each control and treatment well, and percent cell viability ((At/A0) × 100)) was determined in each treatment well, where At is the absorbance value of the treatment well and A0 is the average absorbance value of control wells after background subtraction. The data were expressed as average percentage cell viability and fitted in non-linear regression curves using GraphPad Prism 7 (GraphPad Software, La Jolla, CA, USA).
# His-tagged BCL-xL = target: T2, His-tagged BCL-xL (Homo sapiens, UniProt Q07817); experiment: AlphaScreen competitive binary binding, BCL-xL (biotin-BAD peptide)
# T2 construct: purchased Sigma-Aldrich SRP0187
# T2 sequence (Q07817 whole entry): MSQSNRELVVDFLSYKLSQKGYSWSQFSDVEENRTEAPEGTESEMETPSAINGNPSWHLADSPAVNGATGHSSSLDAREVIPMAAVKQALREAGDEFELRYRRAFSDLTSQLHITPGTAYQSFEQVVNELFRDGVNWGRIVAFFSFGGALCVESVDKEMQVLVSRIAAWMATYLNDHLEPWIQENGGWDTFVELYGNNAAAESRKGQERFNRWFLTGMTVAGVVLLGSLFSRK
# Method: as §1
smiles,measurement,setting,value
"CC1(C)CCC(c2ccc(Cl)cc2)=C(CN2CCN(c3ccc(C(=O)NS(=O)(=O)c4ccc(N[C@H](CCN5CCOCC5)CSc5ccccc5)c(S(=O)(=O)C(F)(F)F)c4)cc3)CC2)C1 [ABT263, navitoclax]",Alpha signal normalised to Maximum/Minimum (inhibition),"His-tagged BCL-2; BCL-2 Rep-1, 0.000305176 uM, 0.000305176 µM",59.5965
same,inhibition at 0.000305176 µM,"His-tagged BCL-2; BCL-2 Rep-1, 0.000305176 uM, read-out: Alpha signal normalised to Maximum/Minimum (inhibition)",58.7%
same,Alpha signal normalised to Maximum/Minimum (inhibition),"His-tagged BCL-2; BCL-2 Rep-1, 0.0012207 uM, 0.0012207 µM",60.0938
same,inhibition at 0.0012207 µM,"His-tagged BCL-2; BCL-2 Rep-1, 0.0012207 uM, read-out: Alpha signal normalised to Maximum/Minimum (inhibition)",49.1%
same,Alpha signal normalised to Maximum/Minimum (inhibition),"His-tagged BCL-2; BCL-2 Rep-1, 0.00488281 uM, 0.00488281 µM",80.812
same,inhibition at 0.00488281 µM,"His-tagged BCL-2; BCL-2 Rep-1, 0.00488281 uM, read-out: Alpha signal normalised to Maximum/Minimum (inhibition)",82.4%
same,Alpha signal normalised to Maximum/Minimum (inhibition),"His-tagged BCL-2; BCL-2 Rep-1, 0.0195312 uM, 0.0195312 µM",99.3807
same,inhibition at 0.0195312 µM,"His-tagged BCL-2; BCL-2 Rep-1, 0.0195312 uM, read-out: Alpha signal normalised to Maximum/Minimum (inhibition)",98.6%
same,Alpha signal normalised to Maximum/Minimum (inhibition),"His-tagged BCL-2; BCL-2 Rep-1, 0.078125 uM, 0.078125 µM",99.9974
same,inhibition at 0.078125 µM,"His-tagged BCL-2; BCL-2 Rep-1, 0.078125 uM, read-out: Alpha signal normalised to Maximum/Minimum (inhibition)",100%
same,Alpha signal normalised to Maximum/Minimum (inhibition),"His-tagged BCL-2; BCL-2 Rep-1, 0.3125 uM, 0.3125 µM",99.341
same,inhibition at 0.3125 µM,"His-tagged BCL-2; BCL-2 Rep-1, 0.3125 uM, read-out: Alpha signal normalised to Maximum/Minimum (inhibition)",98.9%
same,Alpha signal normalised to Maximum/Minimum (inhibition),"His-tagged BCL-2; BCL-2 Rep-1, 1.25 uM, 1.25 µM",100.024
same,inhibition at 1.25 µM,"His-tagged BCL-2; BCL-2 Rep-1, 1.25 uM, read-out: Alpha signal normalised to Maximum/Minimum (inhibition)",99%
same,Alpha signal normalised to Maximum/Minimum (inhibition),"His-tagged BCL-2; BCL-2 Rep-1, 5 uM, 5 µM",98.7813
same,inhibition at 5 µM,"His-tagged BCL-2; BCL-2 Rep-1, 5 uM, read-out: Alpha signal normalised to Maximum/Minimum (inhibition)",99%
same,Alpha signal (raw counts),"His-tagged BCL-2; BCL-2 Rep-2, 0.00488281 uM",125701 and 136831
same,Alpha signal normalised to Maximum/Minimum (inhibition),"His-tagged BCL-2; BCL-2 Rep-2, 0.0195312 uM, 0.0195312 µM",98.383
same,inhibition at 0.0195312 µM,"His-tagged BCL-2; BCL-2 Rep-2, 0.0195312 uM, read-out: Alpha signal normalised to Maximum/Minimum (inhibition)",98.1%
same,Alpha signal normalised to Maximum/Minimum (inhibition),"His-tagged BCL-2; BCL-2 Rep-2, 0.078125 uM, 0.078125 µM",99.1744
same,inhibition at 0.078125 µM,"His-tagged BCL-2; BCL-2 Rep-2, 0.078125 uM, read-out: Alpha signal normalised to Maximum/Minimum (inhibition)",98.7%
same,Alpha signal normalised to Maximum/Minimum (inhibition),"His-tagged BCL-2; BCL-2 Rep-2, 0.3125 uM, 0.3125 µM",99.3426
same,inhibition at 0.3125 µM,"His-tagged BCL-2; BCL-2 Rep-2, 0.3125 uM, read-out: Alpha signal normalised to Maximum/Minimum (inhibition)",98.9%
same,Alpha signal normalised to Maximum/Minimum (inhibition),"His-tagged BCL-2; BCL-2 Rep-2, 1.25 uM, 1.25 µM",99.8148
same,inhibition at 1.25 µM,"His-tagged BCL-2; BCL-2 Rep-2, 1.25 uM, read-out: Alpha signal normalised to Maximum/Minimum (inhibition)",97.9%
same,Alpha signal normalised to Maximum/Minimum (inhibition),"His-tagged BCL-2; BCL-2 Rep-2, 5 uM, 5 µM",100.138
same,inhibition at 5 µM,"His-tagged BCL-2; BCL-2 Rep-2, 5 uM, read-out: Alpha signal normalised to Maximum/Minimum (inhibition)",98%
same,Alpha signal (raw counts),"His-tagged BCL-2; BCL-2 Rep-2, plate row C, 1.25 uM",32515 and 16642
same,Alpha signal (raw counts),"His-tagged BCL-2; BCL-2 Rep-2, plate row D, 0.3125 uM",24362 and 20560
same,Alpha signal (raw counts),"His-tagged BCL-2; BCL-2 Rep-2, plate row E, 0.078125 uM",25987 and 21955
same,Alpha signal (raw counts),"His-tagged BCL-2; BCL-2 Rep-2, plate row F, 0.0195312 uM",31255 and 28520
same,Alpha signal (raw counts),"His-tagged BCL-2; BCL-2 Rep-2, plate row H, 0.0012207 uM",409647 and 386712
same,Alpha signal (raw counts),"His-tagged BCL-2; BCL-2 Rep-2, plate row I, 0.000305176 uM",513586 and 565907
same,Alpha signal (raw counts),"His-tagged BCL-2; BCL-2 Rep-2, plate row J, 7.62939e-5 uM",711623 and 736033
same,Alpha signal (raw counts),"His-tagged BCL-2; BCL-2 Rep-2, plate row K, 1.90735e-5 uM",598210 and 675191
same,cell viability normalised to control wells (single replicate),"Hela cells; MTS absorbance 490, Conc 0.00137174 uM",109.176 and 100.419
same,cell viability normalised to control wells (single replicate),"Hela cells; MTS absorbance 490, Conc 0.00411523 uM",94.0029 and 98.8584
same,cell viability normalised to control wells (single replicate),"Hela cells; MTS absorbance 490, Conc 0.037037 uM",90.3613 and 97.2977
same,cell viability normalised to control wells (single replicate),"Hela cells; MTS absorbance 490, Conc 0.111111 uM",79.4364 and 85.7659 and 104.581
same,cell viability normalised to control wells (single replicate),"Hela cells; MTS absorbance 490, Conc 0.333333 uM",80.9971 and 79.263
same,cell viability normalised to control wells (single replicate),"Hela cells; MTS absorbance 490, Conc 1 uM",85.9393 and 80.3035
same,cell viability normalised to control wells (single replicate),"Hela cells; MTS absorbance 490, Conc 3 uM",78.7428 and 78.4827
same,Alpha signal normalised to Maximum/Minimum (inhibition),"His-tagged BCL-xL; BCL-xL Rep-1, 0.000305176 uM, 0.000305176 µM",28.4807
same,inhibition at 0.000305176 µM,"His-tagged BCL-xL; BCL-xL Rep-1, 0.000305176 uM, read-out: Alpha signal normalised to Maximum/Minimum (inhibition)",32%
same,Alpha signal normalised to Maximum/Minimum (inhibition),"His-tagged BCL-xL; BCL-xL Rep-1, 0.0012207 uM, 0.0012207 µM",28.8475
same,inhibition at 0.0012207 µM,"His-tagged BCL-xL; BCL-xL Rep-1, 0.0012207 uM, read-out: Alpha signal normalised to Maximum/Minimum (inhibition)",27.8%
same,Alpha signal normalised to Maximum/Minimum (inhibition),"His-tagged BCL-xL; BCL-xL Rep-1, 0.00488281 uM, 0.00488281 µM",50.9941
same,inhibition at 0.00488281 µM,"His-tagged BCL-xL; BCL-xL Rep-1, 0.00488281 uM, read-out: Alpha signal normalised to Maximum/Minimum (inhibition)",46.4%
same,Alpha signal normalised to Maximum/Minimum (inhibition),"His-tagged BCL-xL; BCL-xL Rep-1, 0.0195312 uM, 0.0195312 µM",73.9595
same,inhibition at 0.0195312 µM,"His-tagged BCL-xL; BCL-xL Rep-1, 0.0195312 uM, read-out: Alpha signal normalised to Maximum/Minimum (inhibition)",70.8%
same,Alpha signal normalised to Maximum/Minimum (inhibition),"His-tagged BCL-xL; BCL-xL Rep-1, 0.078125 uM, 0.078125 µM",89.8384
